These results are taken from ChEMBL document CHEMBL6078717, “An overview of GPX4-targeting TPDs for cancer therapy” (Bioorg Med Chem, 2025).

Data set [1] is described as follows: PROTAC activity at GPX4/E3 ligase in human HT-1080 cells assessed as degradation of GPX4 protein incubated for 24 hrs by Western blotting analysis. Type of data set: cell-based. Particulars: HT-1080, 24 h. For orientation: A western blot detects proteins with antibodies after separation by electrophoresis.
The test system of another data set is DU-145. Description: Antiproliferative activity against human DU-145 cells assessed as cell growth inhibition by SRB assay. In kind it is functional, cell-based.
A further data set has as its system MDA-MB-231. Description: Antiproliferative activity against human MDA-MB-231 cells assessed as reduction in cell viability after 48 hrs by SRB assay. In kind it is functional, cell-based. Conditions: MDA-MB-231, 48 h. On the technique in general: Sulforhodamine B stains cellular protein and so reports cell mass.
Another data set deals with 786-0. In words: Antiproliferative activity against human 786-0 cells assessed as cell growth inhibition measured for 48 hrs by SRB assay. Particulars: 786-0, 48 h. Type of data set: functional, cell-based.
The nature of data set [2]: Antiproliferative activity against HEK293T cells assessed as reduction in cell growth. Conditions: human. In kind it is toxicity, cell-based, HEK-293T.
Another data set concerns Calu-1. Description: Antiproliferative activity against human Calu-1 cells assessed as inhibition of cell growth incubated for 24 hrs by MTT assay. In kind it is functional, cell-based. Conditions: Calu-1, 24 h. On the technique in general: Formazan colour is commonly taken as a measure of viable cells.

In the case of `Cc1onc(C(=O)N2CCN(C(c3ccc(Cl)cc3)c3ccc(OCCOCCOCC(=O)NCC45CC6CC(CC(C6)C4)C5)cc3)CC2)c1[N+](=O)[O-]` (centres undefined), the DC50 – broadly, the concentration giving 50% degradation – in data set [1] turned out to be 57 nM. Also, the results for the IC50 in the data set with DU-145, in the data set with MDA-MB-231 and in the data set with 786-0 were 92 nM, 31 nM and 125 nM, respectively.
Regarding `COC(=O)c1ccc([C@H]2c3[nH]c4ccccc4c3C[C@H](C(=O)OC)N2C(=O)CCl)cc1`, the IC50 (in general, the concentration that gives 50% inhibition) in data set [2] amounted to 310 nM.
On to `O=C1CCC(N2C(=O)c3cccc(NCCOCCOCCOCCN(C(=O)CCl)C(C(=O)NCc4ccccc4)c4cccs4)c3C2=O)C(=O)N1` (centres undefined), for which the IC50 with Calu-1 stood at 2930 nM. In addition, the 50% degradation concentration (DC50) in data set [1] turned out to be 210 nM.
The corresponding values for `O=C1CCC(N2C(=O)c3cccc(NCCCCN(C(=O)CCl)C(C(=O)NCc4ccccc4)c4cccs4)c3C2=O)C(=O)N1` (centres undefined) are 860 nM and 130 nM.
